# Measured values taken from patent US20110245088A1, “AMIDE-BASED SOLUTION-PHASE DERIVED LIBRARY AND METHOD FOR SCREENING THEREOF” (NATIONAL TSING HUA UNIVERSITY, priority 2010, published 2011).
# “Also recorded” adds a separate entry of the source. Where two headings read alike, the source gives them in different places.
# Columns and labels:
# MCF7 cell line = assay: Cytotoxicity by MTT assay, MCF7 cell line; format: cell-based, human; settings: for IC50: MCF7 cell line, purified compounds, incubation of 2 days, read-out: IC 50 of the Compounds Purified from Independent Synthesis, MCF7; for biological activity (cytotoxicity) in crude library assay: crude coupling products, MCF7 (FIGS. 4a-c; cell line not always given)
# Description: (§1) The cell lines were used in the present invention, including A549 (Human type II epithelial cell line, from American Type Culture Collection, Manassas, Va.) and MCF7 (solid human estrogen receptor positive breast carcinoma). A 10 μl coupling product solution was added into the well of microtiterplate planted with 100 μl of above mentioned cell lines in a concentration of 30000 cells/mL. Furthermore, the coupling product in each well was diluted before transferring to the plate. Thus the appropriate working concentration could be determined since the cellular survival ratio of most compounds acting as negative control is greater than 80%. The method was illustrated in FIG. 3. After an incubation of 2 days, the supernatants were washed, followed by adding MTT reagents. After 4 hours, absorbance at 580 nm was recorded according to the usual protocol.
# A549 cell line = assay: Cytotoxicity by MTT assay, A549 cell line; format: cell-based, Human; settings: for IC50: A549 cell line, purified compounds, incubation of 2 days, read-out: IC 50 of the Compounds Purified from Independent Synthesis, A549
# Description: as §1
Structure (SMILES),IC50 (MCF7 cell line),biological activity (cytotoxicity) in crude library assay (MCF7 cell line),IC50 (A549 cell line),"biological activity (cytotoxicity) in crude library assay (A549 cell line; crude coupling products, A549)","IC50 (MCF7 cell line; Homo sapiens, 48 h)","IC50 (A549 cell line; Homo sapiens, 48 h)"
C=C(CC)C(=O)c1ccc(OCC(=O)NC[C@H]2O[C@@H](n3ccc(=O)[nH]c3=O)C[C@@H]2O)c(Cl)c1Cl [A15],> 100 µM,exhibited biological activity,> 100 µM,,,
O=C(NCC1OC(n2ccc(=O)[nH]c2=O)CC1O)c1cccc(C(=O)c2ccc(F)cc2)c1 (centres unmarked) [A16],> 100 µM,,> 100 µM,,,
C=C(CC)C(=O)c1ccc(OCC(=O)NCCCC)c(Cl)c1Cl [C15],8 ± 5 µM,exhibited biological activity,18 µM,,,
CCCCNC(=O)c1cccc(C(=O)c2ccc(F)cc2)c1 [C16],> 100 µM,,> 100 µM,,,
CCCCNC(=O)CCC(=O)c1ccc(-c2ccccc2)cc1 [C18],87 µM,exhibited biological activity; also recorded: unexpected bioactivity,100 µM,unexpected bioactivity,,
"N.N.[Cl][Pt][Cl] [Cisplatin, reference compound]",25 ± 6 µM,,8 ± 3 µM,,,
"C=C(CC)C(=O)c1ccc(OCC(=O)O)c(Cl)c1Cl [D15, 2-(2,3-dichloro-4-(2-methylenebutanoyl)phenoxy)acetic acid, reference compound]",,,,,26 ± 2 µM,84 ± 16 µM
"O=C(O)c1cccc(C(=O)c2ccc(F)cc2)c1 [D16, 3-(4-fluorobenzoyl)benzoic acid, reference compound]",,,,,> 100 µM,> 100 µM
"O=C(O)CCC(=O)c1ccc(-c2ccccc2)cc1 [D18, 4-([1,1′-biphenyl]-4-yl)-4-oxobutanoic acid, reference compound]",,,,,> 100 µM,> 100 µM
O=C(NCC1OC(n2ccc(=O)[nH]c2=O)C(O)C1O)c1ccccc1 (centres unmarked) [U1],> 100 µM,,> 100 µM,,,
O=C(CCC(=O)c1ccc(-c2ccccc2)cc1)NCC1OC(n2ccc(=O)[nH]c2=O)C(O)C1O (centres unmarked) [U18],> 100 µM,,> 100 µM,,,
CCCCCCCCCCCC(=O)NC[C@H]1O[C@@H](n2ccc(=O)[nH]c2=O)[C@H](O)[C@@H]1O [U27],~100 µM,exhibited biological activity; also recorded: subtle cytotoxicity,> 100 µM,,,
